Counter-ions that a name gives are not always drawn.

The first assay has as its system Acinetobacter baumannii ATCC17961. The assay is described as follows: Antimicrobial susceptibility testing: 90% growth inhibitory concentration (IC90) determination. The following applies: 90% growth inhibitory concentration against Acinetobacter baumannii ATCC17961, Iso-Sensitest broth, OD 600 nm over 16 h; read-out: ATCC 17961 IC90. It counts as cell-based. The essentials:
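Twofold serial dilutions (e.g. 10 to 0.0195 μM final) in Iso-Sensitest broth inoculated at ~5×10^5 CFU/mL, incubated at 35±2° C. OD600 read every minute for 16 h; IC90 is the concentration inhibiting 90% of growth during logarithmic phase.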
What is called IC90 is the concentration needed for an effect of 90%. In the case of `Cn1c(-c2cn(-c3ccc(N)cc3F)nc2C(F)(F)F)cnc1C(=O)Nc1ccc(C(=O)N2CCN(C(=O)OCC[N+](CCCN)(CCCN)CC(=O)O)CC2)c(Cl)c1` [Example 130, 2-[4-[4-[[5-[1-(4-amino-2-fluoro-phenyl)-3-(trifluoromethyl)pyrazol-4-yl]-1-methyl-imidazole-2-carbonyl]amino]-2-chloro-benzoyl]piperazine-1-carbonyl]oxyethyl-bis(3-aminopropyl)-(carboxymethyl)ammonium; formate], the IC90 was 252 nM.

The same assay, now with this note: Acinetobacter baumannii, ATCC17961, 16 h, 90% growth inhibitory concentration against Acinetobacter baumannii ATCC17961, Iso-Sensitest broth, OD 600 nm over 16 h; read-out: ATCC 17961 IC90.
For the compound `Cn1c(-c2cn(-c3ccc(N4CCOCC4)cn3)nc2C(F)(F)F)cnc1C(=O)Nc1ccc(C(=O)N2CCN(C(=O)C3CC[N+](CC(=O)O)(CC4CNC4)CC3)CC2)c(Cl)c1` (stereo not shown) [Example 26, 2-[1-(azetidin-3-ylmethyl)-4-[4-[2-chloro-4-[[1-methyl-5-[1-(5-morpholino-2-pyridyl)-3-(trifluoromethyl)pyrazol-4-yl]imidazole-2-carbonyl]amino]benzoyl]piperazine-1-carbonyl]piperidin-1-ium-1-yl]acetic acid. 1:1 formate], the IC90 was found to be 360 nM.
On the same count and under the same terms, to `Cn1c(-c2cn(-c3ccc4c(ccn4C(C)(C)C(N)=O)n3)nc2C(F)(F)F)cnc1C(=O)Nc1ccc(C(=O)N2CCN(C(=O)[C@H]3CC[N@+](CC(=O)O)(CC4CNC4)CC3)CC2)c(Cl)c1` [Example 138, cis-2-[4-[4-[4-[[5-[1-[1-(2-amino-1,1-dimethyl-2-oxo-ethyl)pyrrolo[3,2-b]pyridin-5-yl]-3-(trifluoromethyl)pyrazol-4-yl]-1-methyl-imidazole-2-carbonyl]amino]-2-chloro-benzoyl]piperazine-1-carbonyl]-1-(azetidin-3-ylmethyl)piperidin-1-ium-1-yl]acetic acid;chloride] belongs 408 nM; to `Cn1c(-c2cn(-c3ccc(N)cn3)nc2C(F)(F)F)cnc1C(=O)Nc1ccc(C(=O)N2CCN(C(=O)C[C@H](N)C(=O)O)CC2)c(Cl)c1` [Example 83, (2S)-2-amino-4-[4-[4-[[5-[1-(5-amino-2-pyridyl)-3-(trifluoromethyl)pyrazol-4-yl]-1-methyl-imidazole-2-carbonyl]amino]-2-chloro-benzoyl]piperazino]-4-keto-butyric acid. 1:1 2,2,2-trifluoroacetic acid], 1240 nM.
Turning to `CNC(=O)n1ccc2nc(-n3cc(-c4cnc(C(=O)Nc5ccc(C(=O)N6CCN(C(=O)[C@H]7CC[N@+](CC(=O)O)(CC8CNC8)CC7)CC6)c(Cl)c5)n4C)c(C(F)(F)F)n3)ccc21` [Example 143, cis-2-[1-(azetidin-3-ylmethyl)-4-[4-[2-chloro-4-[[1-methyl-5-[1-[1-(methylcarbamoyl)pyrrolo[3,2-b]pyridin-5-yl]-3-(trifluoromethyl)pyrazol-4-yl]imidazole-2-carbonyl]amino]benzoyl]piperazine-1-carbonyl]piperidin-1-ium-1-yl]acetic acid. 1:1 formate], the 90% effect concentration (IC90) came out at 682 nM.
On the same count and under the same terms, the value for `Cn1c(-c2cn(-c3ccc(N)cn3)nc2C(F)(F)F)cnc1C(=O)Nc1ccc(C(=O)N2CCN(C(=O)C3CC[N+](CCCN)(CC(=O)O)CC3)CC2)c(Cl)c1` (stereo not shown) [Example 30, 2-[1-(3-aminopropyl)-4-[4-[4-[[5-[1-(5-amino-2-pyridyl)-3-(trifluoromethyl)pyrazol-4-yl]-1-methyl-imidazole-2-carbonyl]amino]-2-chloro-benzoyl]piperazine-1-carbonyl]piperidin-1-ium-1-yl]acetic acid. 1:1 2,2,2-trifluoroacetate] was 370 nM; that for `Cc1cc(NC(=O)c2ncc(-c3cn(-c4ccc5[nH]c([C@H](C)O)cc5n4)nc3C(F)(F)F)n2C)ccc1C(=O)N1CCN(C(=O)[C@H]2CC[N@@+](CCCN)(CC(=O)O)CC2)CC1` [Example 101, cis-2-[1-(3-aminopropyl)-4-[4-[4-[[5-[1-[2-[(1S)-1-hydroxyethyl]-1H-pyrrolo[3,2-b]pyridin-5-yl]-3-(trifluoromethyl)pyrazol-4-yl]-1-methyl-imidazole-2-carbonyl]amino]-2-methyl-benzoyl]piperazine-1-carbonyl]piperidin-1-ium-1-yl]acetic acid;chloride] was 338 nM.
Still for that read-out and setting: the value for `Cc1cc(NC(=O)c2ncc(-c3cn(-c4ccc5[nH]c(CO)cc5n4)nc3C(F)(F)F)n2C)ccc1C(=O)N1CCN(C(=O)[C@H]2CC[N@+](CC(=O)O)(CC3CNC3)CC2)CC1` [Example 153, cis-2-[1-(azetidin-3-ylmethyl)-4-[4-[2-methyl-4-[[1-methyl-5-[1-(2-methylol-1H-pyrrolo[3,2-b]pyridin-5-yl)-3-(trifluoromethyl)pyrazol-4-yl]imidazole-2-carbonyl]amino]benzoyl]piperazine-1-carbonyl]piperidin-1-ium-1-yl]acetic acid. 1:1 2,2,2-trifluoroacetate] was 384 nM; that for `Cn1c(-c2cn(-c3ccc(N)cc3F)nc2C(F)(F)F)cnc1C(=O)Nc1ccc(C(=O)N2CCN(C(=O)[C@H]3CC[N@@+](CCCN)(CC(=O)O)CC3)CC2)c(Cl)c1` [Example 170, cis-2-[4-[4-[4-[[5-[1-(4-amino-2-fluoro-phenyl)-3-(trifluoromethyl)pyrazol-4-yl]-1-methyl-imidazole-2-carbonyl]amino]-2-chloro-benzoyl]piperazine-1-carbonyl]-1-(3-aminopropyl)piperidin-1-ium-1-yl]acetic acid. 1:1 2,2,2-trifluoroacetate] was 199 nM; that for `Cn1c(-c2cn(-c3cc4[nH]cc(C(=O)N5CC[C@H](O)C5)c4cn3)nc2C(F)(F)F)cnc1C(=O)Nc1ccc(C(=O)N2CCN(C(=O)[C@H]3CC[N@+](CC(=O)O)(CC4CNC4)CC3)CC2)c(Cl)c1` [Example 155, cis-2-[1-(azetidin-3-ylmethyl)-4-[4-[2-chloro-4-[[5-[1-[3-[(3S)-3-hydroxypyrrolidine-1-carbonyl]-1H-pyrrolo[3,2-c]pyridin-6-yl]-3-(trifluoromethyl)pyrazol-4-yl]-1-methyl-imidazole-2-carbonyl]amino]benzoyl]piperazine-1-carbonyl]piperidin-1-ium-1-yl]acetic acid. 1:1 2,2,2-trifluoroacetate] was 329 nM.
On to `C[C@H]1CN(C(=O)c2ccc(NC(=O)c3ncc(-c4cn(-c5ccc(N)cn5)nc4C(F)(F)F)n3C)cc2Cl)CCN1C(=O)C1CC[N+](CC(=O)O)(CC2CNC2)CC1` (stereo partly drawn) [Example 77, 2-[4-[(2S)-4-[4-[[5-[1-(5-amino-2-pyridyl)-3-(trifluoromethyl)pyrazol-4-yl]-1-methyl-imidazole-2-carbonyl]amino]-2-chloro-benzoyl]-2-methyl-piperazine-1-carbonyl]-1-(azetidin-3-ylmethyl)piperidin-1-ium-1-yl]acetic acid. 1:1 formate], for which the IC90 was found to be 1100 nM.
Regarding `Cn1c(-c2cn(-c3cc4[nH]c(CN)cc4cn3)nc2C(F)(F)F)cnc1C(=O)Nc1ccc(C(=O)N2CCN(C(=O)[C@H]3CC[N@+](CC(=O)O)(CC4CNC4)CC3)CC2)c(Cl)c1` [Example 189, cis-2-[4-[4-[4-[[5-[1-[2-(aminomethyl)-1H-pyrrolo[3,2-c]pyridin-6-yl]-3-(trifluoromethyl)pyrazol-4-yl]-1-methyl-imidazole-2-carbonyl]amino]-2-chloro-benzoyl]piperazine-1-carbonyl]-1-(azetidin-3-ylmethyl)piperidin-1-ium-1-yl]acetic acid;formic acid;formate], the IC90 amounted to 53.2 nM.
Same read-out and setting: to `Cn1c(-c2cn(-c3cc4[nH]ncc4cn3)nc2C(F)(F)F)cnc1C(=O)Nc1ccc(C(=O)N2CCN(C(=O)[C@H]3CC[N@+](CC(=O)O)(CC4CNC4)CC3)CC2)c(Cl)c1` [Example 173, cis-2-[1-(azetidin-3-ylmethyl)-4-[4-[2-chloro-4-[[1-methyl-5-[1-(1H-pyrazolo[4,3-c]pyridin-6-yl)-3-(trifluoromethyl)pyrazol-4-yl]imidazole-2-carbonyl]amino]benzoyl]piperazine-1-carbonyl]piperidin-1-ium-1-yl]acetic acid. 1:1 2,2,2-trifluoroacetate] belongs 352 nM; to `Cn1c(-c2cn(-c3ccc(N(CCN)CCN)cn3)nc2C(F)(F)F)cnc1C(=O)Nc1ccc(C(=O)N2CCN(C(=O)[C@H]3CC[N@+](CC(=O)O)(CC4CNC4)CC3)CC2)c(Cl)c1` [Example 196, cis-2-[1-(azetidin-3-ylmethyl)-4-[4-[4-[[5-[1-[5-[bis(2-aminoethyl)amino]-2-pyridyl]-3-(trifluoromethyl)pyrazol-4-yl]-1-methyl-imidazole-2-carbonyl]amino]-2-chloro-benzoyl]piperazine-1-carbonyl]piperidin-1-ium-1-yl]acetic acid;formic acid;formate], 185 nM; to `Cn1c(-c2cn(-c3cc4[nH]c(C(=O)N5CCS(=N)(=O)CC5)cc4cn3)nc2C(F)(F)F)cnc1C(=O)Nc1ccc(C(=O)N2CCN(C(=O)[C@H]3CC[N@+](CC(=O)O)(CC4CNC4)CC3)CC2)c(Cl)c1` [Example 114, cis-2-[1-(azetidin-3-ylmethyl)-4-[4-[2-chloro-4-[[5-[1-[2-(1-imino-1-keto-1,4-thiazinane-4-carbonyl)-1H-pyrrolo[3,2-c]pyridin-6-yl]-3-(trifluoromethyl)pyrazol-4-yl]-1-methyl-imidazole-2-carbonyl]amino]benzoyl]piperazine-1-carbonyl]piperidin-1-ium-1-yl]acetic acid. 1:1 2,2,2-trifluoroacetate], 637 nM.
As for `Cn1c(-c2cn(-c3ccc(N)cn3)nc2C(F)(F)F)cnc1C(=O)Nc1ccc(C(=O)N2CCN(C(=O)C3CC[N+](CC(=O)O)(CC4CNC4)CC3)CC2)c(Cl)c1` (stereo not shown) [Example 59, 2-[4-[4-[4-[[5-[1-(5-amino-2-pyridyl)-3-(trifluoromethyl)pyrazol-4-yl]-1-methyl-imidazole-2-carbonyl]amino]-2-chloro-benzoyl]piperazine-1-carbonyl]-1-(azetidin-3-ylmethyl)piperidin-1-ium-1-yl]acetic acid. 1:1 formate], the IC90 stood at 650 nM.
